Source: patent publication US20140336503A1, “RA[…] […] RELATED METHODS THEREOF” (The Regents of the University of Michigan, priority 2013, published 2014)
pIC50: −log10 of the molar value.

What was measured:
human cathepsin K = biological target: T1, human cathepsin K (Homo sapiens, UniProt P43235); conditions: in vitro; cited from earlier work
T1 sequence (P43235 115-329): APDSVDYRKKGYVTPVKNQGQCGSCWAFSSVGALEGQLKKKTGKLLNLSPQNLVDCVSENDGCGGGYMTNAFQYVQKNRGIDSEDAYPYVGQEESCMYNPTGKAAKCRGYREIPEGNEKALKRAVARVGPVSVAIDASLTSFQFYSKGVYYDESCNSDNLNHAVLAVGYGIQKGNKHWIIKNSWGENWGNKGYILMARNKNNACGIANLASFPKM

osteoclasts in bone = test: microPET imaging of radioligand uptake into bone in normal rats, with blocking studies; assay type: in vivo; conditions: rat
Source text: Studies were done using imaging with Concorde Microsystems R4 and P4 PET scanners. Rats were anesthetized with isoflurane and maintained on 1% isoflurane throughout the imaging period. The animals were placed on their dorsal side in the scanner, and body temperature was maintained using a heating pad. A catheter was inserted into the tail vein for administration of radioactive solutions. Following a measured transmission scan, solutions of radioligands ([^11C]1 or ([^11C]2, 37-185 MBq in 0.5-1 mL volumes) were injected via the catheter, followed by a 1 ml flush of saline. For the blocking study, a 2 mg/kg dose of unlabeled compound 2 was administered 10 minutes prior to the injection of the radiolabeled [^11C]2. Emission data was collected for 60 minutes (12×5 min fames). The emission data was corrected for decay, dead time and random coincidences, then reconstructed using iterative ordered subset expectation maximization-maximum a posteriori (OSEM-MAP) yielding a reconstructed image resolution of approximately 1.4 mm. Volumetric regions of interest (ROIs) were defined using hand-drawn circular ROIs placed on the summed images, and the time-activity curves determined for each ROI (ASI Pro VM software: Siemens Medical Systems, Malvern, Pa.).

[1] = whole body biodistribution of radioactivity after intravenous injection in rats; assay type: in vivo, rat; conditions: female rats, i.v.; for Tissue biodistribution, Bone, avg: femur in its entirety
Method: The whole body biodistribution of radioactivity after intravenous injection of [^11C]1 was determined in rats. Animals (N =6, female CD rats) were lightly anesthetized (isoflurane) and injected via the tail vein with 1.85-4.44 MBq of radioligand formulated in 5% ethanol/saline. At selected times (5 and 40 min), groups (N=3) of animals were anesthetized, euthanized (decapitation) and samples of tissues removed. Tissue samples were weighed, counted for carbon-11, and the data calculated as % injected dose/g.

Structure (SMILES): COc1ccc(CCNC(=O)c2cnc(C#N)nc2NC2CCCCC2)cc1 [[^11C]1, 2-cyano-4-(cyclohexylamino)-N-(4-[^11C]methoxyphenethyl)-pyrimidine-5-carboxamide]
- pIC50 (human cathepsin K): 10.65

Structure (SMILES): [11CH3]Oc1ccc(CCNC(=O)c2cnc(C#N)nc2NC2CCCCC2)cc1 [[^11C]1, 2-cyano-4-(cyclohexylamino)-N-(4-[^11C]methoxyphenethyl)-pyrimidine-5-carboxamide]
- uptake and retention into target bone regions with low specific activity dose (osteoclasts in bone; 10.8 GBq/μmol, co-injection of 14 micrograms/kg of unlabeled 1): nearly full block
- uptake and retention after pretreatment with unlabeled CCX (osteoclasts in bone; microPET): reduced
- uptake in the growth plates (proximal humerus, distal ulnar, carpal, distal femur, proximal tibia, caudal vertebrae) (osteoclasts in bone; microPET): high uptake
- Tissue biodistribution, Adrenal, avg ([1]; 5 min): 3.57 % injected dose/g
- Tissue biodistribution, Blood, avg ([1]; 5 min): 0.24 % injected dose/g
- Tissue biodistribution, Brain, avg ([1]; 5 min): 0.43 % injected dose/g
- Tissue biodistribution, Heart, avg ([1]; 5 min): 1.23 % injected dose/g
- Tissue biodistribution, Kidney, avg ([1]; 5 min): 2.03 % injected dose/g
- Tissue biodistribution, Liver, avg ([1]; 5 min): 3.02 % injected dose/g
- Tissue biodistribution, Lung, avg ([1]; 5 min): 0.68 % injected dose/g
- Tissue biodistribution, Muscle, avg ([1]; 5 min): 0.11 % injected dose/g
- Tissue biodistribution, Pancreas, avg ([1]; 5 min): 1.68 % injected dose/g
- Tissue biodistribution, Spleen, avg ([1]; 5 min): 1.03 % injected dose/g
- Tissue biodistribution, Bone, avg ([1]; 5 min): 0.26 % injected dose/g
- Tissue biodistribution, Adrenal, avg ([1]; 40 min): 0.51 % injected dose/g
- Tissue biodistribution, Blood, avg ([1]; 40 min): 0.11 % injected dose/g
- Tissue biodistribution, Brain, avg ([1]; 40 min): 0.11 % injected dose/g
- Tissue biodistribution, Heart, avg ([1]; 40 min): 0.19 % injected dose/g
- Tissue biodistribution, Kidney, avg ([1]; 40 min): 0.41 % injected dose/g
- Tissue biodistribution, Liver, avg ([1]; 40 min): 0.68 % injected dose/g
- Tissue biodistribution, Lung, avg ([1]; 40 min): 0.16 % injected dose/g
- Tissue biodistribution, Muscle, avg ([1]; 40 min): 0.11 % injected dose/g
- Tissue biodistribution, Pancreas, avg ([1]; 40 min): 0.56 % injected dose/g
- Tissue biodistribution, Spleen, avg ([1]; 40 min): 0.22 % injected dose/g
- Tissue biodistribution, Bone, avg ([1]; 40 min): 0.14 % injected dose/g

Structure (SMILES): CC(C)(C)CNc1nc(C#N)ncc1C(=O)NCCc1ccc(O[11CH3])cc1 [[^11C]2, 2-cyano-N-(4-[^11C]methoxyphenethyl)-4-(neopentylamino)pyrimidine-5-carboxamide]
- bone uptake of radioactivity after blocking dose of unlabeled ligand 2 (osteoclasts in bone; 2 mg/kg unlabeled 2, ten minutes prior to injection): reduction of bone uptake of radioactivity to essentially levels equivalent to background in non-target tissues

Structure (SMILES): COc1ccc(CCNC(=O)c2cnc(C#N)nc2NCC(C)(C)C)cc1 [[^11C]2, 2-cyano-N-(4-[^11C]methoxyphenethyl)-4-(neopentylamino)pyrimidine-5-carboxamide]
- pIC50 (human cathepsin K): 11.52
